In article PMC4836865 (Chemical Science, 2015):

What was measured:
Format in all cases: biochemical
MelBEc [1] = target: T1, MelBEc (Escherichia coli, UniProt P02921); assay: Trp to dansyl FRET, reversed by melibiose; details: solubilised in NDT-C11; fluorescent ligand displaced by melibiose
MelBEc [2] = target: T1, MelBEc; assay: melibiose reversal of Trp to D2G FRET; details: solubilised in NDT-C11; displaces D2G
[3] = target: MelBSt (melibiose permease of Salmonella typhimurium) (Salmonella enterica, UniProt P30878); assay: melibiose reversal of Trp to D2G FRET; details: solubilised in DDM or NDT-C11; displaces D2G
Chain of MelBSt (melibiose permease of Salmonella typhimurium) (P30878 whole entry): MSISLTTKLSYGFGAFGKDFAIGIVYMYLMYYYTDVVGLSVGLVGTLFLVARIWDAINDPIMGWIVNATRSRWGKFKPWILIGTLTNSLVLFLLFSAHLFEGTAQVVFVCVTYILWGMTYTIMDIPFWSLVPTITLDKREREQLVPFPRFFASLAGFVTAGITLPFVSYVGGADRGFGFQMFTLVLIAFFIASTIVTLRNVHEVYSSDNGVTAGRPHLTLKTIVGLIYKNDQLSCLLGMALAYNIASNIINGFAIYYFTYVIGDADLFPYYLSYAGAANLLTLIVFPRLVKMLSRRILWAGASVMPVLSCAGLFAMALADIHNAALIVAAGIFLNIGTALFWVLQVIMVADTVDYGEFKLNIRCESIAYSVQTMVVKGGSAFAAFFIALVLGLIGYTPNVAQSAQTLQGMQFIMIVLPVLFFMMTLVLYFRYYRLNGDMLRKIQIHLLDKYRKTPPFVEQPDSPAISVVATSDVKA

T1 sequence (P02921 2-473): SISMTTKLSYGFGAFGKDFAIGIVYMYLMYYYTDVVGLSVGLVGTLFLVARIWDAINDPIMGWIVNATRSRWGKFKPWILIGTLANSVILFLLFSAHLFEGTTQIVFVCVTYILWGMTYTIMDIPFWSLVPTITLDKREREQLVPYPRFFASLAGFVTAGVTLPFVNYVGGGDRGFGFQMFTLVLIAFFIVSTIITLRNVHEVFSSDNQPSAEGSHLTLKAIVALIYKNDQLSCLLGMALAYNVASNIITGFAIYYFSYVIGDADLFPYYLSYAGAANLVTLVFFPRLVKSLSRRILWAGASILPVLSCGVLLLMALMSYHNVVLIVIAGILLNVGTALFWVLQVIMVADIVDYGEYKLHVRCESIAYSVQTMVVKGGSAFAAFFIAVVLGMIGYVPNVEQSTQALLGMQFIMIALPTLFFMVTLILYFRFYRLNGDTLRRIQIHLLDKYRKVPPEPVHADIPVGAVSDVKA

CN(C)c1cccc2c(S(=O)(=O)NCCS[C@@H]3O[C@H](CO)[C@H](O)[C@H](O)[C@H]3O)cccc12 [2′-(N-dansyl)aminoalkyl-1-thio-β-D-galactopyranoside]
Trp to dansyl FRET, reversed by melibiose (MelBEc [1]): FRET response of the D^2G bound MelB to melibiose or water addition

OC[C@H]1O[C@H](OC[C@H]2OC(O)[C@H](O)[C@@H](O)[C@@H]2O)[C@H](O)[C@@H](O)[C@H]1O (stereo partly drawn) [melibiose]
melibiose reversal of Trp to D2G FRET (MelBEc [2]): NDT-C11 is capable of maintaining the melibiose binding activity of both MelBSt and MelBEc
melibiose reversal of Trp to D2G FRET [3]: MelBSt solubilized in DDM or NDT-C11 was subjected to melibiose reversal of Trp
